# Experimental data from US20240116856A1 (Young BioPharma, LLC, priority 2020, published 2024).
# “And” between values parts separate entries of the source, which are not always exact repeats. Equal values may be shown once. “Also recorded” adds a separate entry of the source. Read-outs that look alike come from different tables or passages of the source.
# Columns and labels:
# [1] = system: Src protein activation in OVCAR-8 cells; assay: Cancer cell immunocytochemistry assay, Phospho-Src (Y416), OVCAR-8; type: cell-based, human
# Protocol: (§1) Human cancer cells (15,000 cells/well) in 96 well half area microplate (Cat #3882, Corning) were incubated overnight at 37° C., then compounds or DMSO control were added to the cell culture and incubated at 37° C. for 1-6 h. The cells were sequentially fixed with 4% formalin, permeabilized with 0.5% Triton X-100, blocked with 5% BSA in PBS, incubated with Human Phospho-Src (Y416) Antibody (Cat #MAB2685, R&D Systems) at rt for 2 h, incubated with the secondary antibody Goat Ant-Rabbit IgG H&L (Alexa Fluor 488) (Cat #ab150077, abeam) for 45 min, and incubated with DAPI (Cat #D9542, Sigma-Aldrich) for 5 min. Finally, the cells were washed and covered with PBS. The cell images were visualized on an inverted fluorescence microscope (Leica DMIL Fluorescent Inverted Microscope with Digital Camera, Leica Microsystems). Pictures were taken [FIGS. 14A-C. Green: Human Phospho-Src (Y416), the activated form of the Src protein; Blue: DAPI (stain nucleus of cell)]. The fluorescence intensity values from 5 random cells were averaged, subtracted by the background value (area between cells) and the blank value [the blank control without the Human Phospho-Src (Y416) Antibody], then plotted as percentage against the DMSO control to indicate the effects of compound treatment on the cellular Src kinase phosphorylation levels in the cancer cells (FIGS. 15A-D).
# [2] = system: Src protein activation in NCI-H460 cells; assay: Cancer cell immunocytochemistry assay, Phospho-Src (Y416), NCI-H460; type: cell-based, human
# Protocol: as §1
# MDA-MB-231 cell invasion = assay: Cancer cell invasion assay, MDA-MB-231; type: cell-based, human; details: for inhibition of MDA-MB-231 cell invasion: 24 h
# Protocol: (§2) A cancer cell invasion assay was developed based on literature protocols (Methods 2005, 37, 208; EMBO J 2002, 21, 6289; Cellular Signalling 2012, 24, 1276.). Membrane matrix gel (Cat #A1413201, ThermoFisher) was diluted in ice-cold, serum-free RPMI 1640 Medium (Cat #31800022, ThermoFisher) at a concentration of 0.5-0.6 mg/mL. Then it was added to the upper compartment (100 μL per cup) of millicell inserts (Cat #PI8P01250, ThermoFisher) placed in a 24-well plate (Part no. 229123, Celltreat). The plate was incubated at 37° C. for 2 h to allow the liquid gel to solidify. RPMI 1640 Medium supplemented with 10% FBS (300 μL) was added to the well of the plate (lower compartment) as attractant, then DMSO or compounds were added. Human cancer cells (1×10^5 cells in 200 μL of RPMI 1640 Medium) were added to the upper compartment of the insert, then DMSO or compounds were added. After the plate was incubated at 37° C. for 24 h, the cells were fixed on the lower side of the insert membrane with 4% formaldehyde and stained with 1% crystal violet (Part no. IS12146, Innovating Science). The invaded cells on the lower side of the filter were counted under an inverted microscope equipped with either a 4× or a 10× objective (FIG. 11). The cell numbers from 5 random views were averaged and plotted as percentage against the DMSO control (FIG. 12A).
# OVCAR-8 cell invasion = assay: Cancer cell invasion assay, OVCAR-8; type: cell-based, human
# Protocol: as §2
# NCI-H460 cell invasion = assay: Cancer cell invasion assay, NCI-H460; type: cell-based, human; details: for inhibition of NCI-H460 cell invasion: 24 h
# Protocol: as §2
# NCI-H460 = assay: Human cancer cell growth inhibition assay (ATP assay), NCI-H460; type: cell-based; details: for IC50: Homo sapiens, NCI-H460, 96 h, 4 days, Means±SEM from three independent experiments, read-out: NCl-H460, IC50
# OVCAR-8 = assay: Human cancer cell growth inhibition assay (ATP assay), OVCAR-8; type: cell-based; details: for IC50: Homo sapiens, OVCAR-8, 96 h, 4 days, Means±SEM from three independent experiments, read-out: OVCAR-8, IC50
# human TRPV3 = biological target: T1, human TRPV3 (Homo sapiens, UniProt Q8NET8); assay: In vitro Ca2+ flux counter-screen in human TRPV3 overexpressing cells; type: cell-based; details: counter-screen; read-out: TRPV3 EC50
# T1 construct: expressed in transfected cells; host or cells: overexpressing cells
# T1 sequence (Q8NET8 1-790): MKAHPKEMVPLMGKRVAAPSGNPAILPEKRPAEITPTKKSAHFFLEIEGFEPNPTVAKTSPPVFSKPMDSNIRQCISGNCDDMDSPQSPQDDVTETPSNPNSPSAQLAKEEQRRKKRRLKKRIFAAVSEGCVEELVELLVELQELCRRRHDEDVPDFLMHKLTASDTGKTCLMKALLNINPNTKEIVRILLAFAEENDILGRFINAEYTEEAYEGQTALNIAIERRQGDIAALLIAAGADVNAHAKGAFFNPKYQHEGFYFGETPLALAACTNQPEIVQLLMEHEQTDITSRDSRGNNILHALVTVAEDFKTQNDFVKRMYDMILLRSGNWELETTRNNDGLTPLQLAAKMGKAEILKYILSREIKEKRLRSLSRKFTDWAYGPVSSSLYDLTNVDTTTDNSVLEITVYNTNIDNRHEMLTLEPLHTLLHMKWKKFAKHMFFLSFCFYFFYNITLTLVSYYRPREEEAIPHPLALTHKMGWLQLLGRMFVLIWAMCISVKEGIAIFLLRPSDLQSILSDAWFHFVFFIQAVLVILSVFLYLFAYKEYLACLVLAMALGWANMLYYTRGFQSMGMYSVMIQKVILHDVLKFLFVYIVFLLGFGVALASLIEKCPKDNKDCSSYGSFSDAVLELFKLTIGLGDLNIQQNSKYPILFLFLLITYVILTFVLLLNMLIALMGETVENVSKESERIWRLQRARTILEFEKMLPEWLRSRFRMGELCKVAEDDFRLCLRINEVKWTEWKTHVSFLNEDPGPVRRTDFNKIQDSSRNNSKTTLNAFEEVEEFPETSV
# human TRPA1 = biological target: T2, human TRPA1 (Homo sapiens, UniProt O75762); assay: In vitro Ca2+ flux counter-screen in human TRPA1 overexpressing cells; type: cell-based; details: counter-screen; read-out: TRPA1 EC50
# T2 construct: expressed in transfected cells; host or cells: overexpressing cells
# T2 sequence (O75762 whole entry): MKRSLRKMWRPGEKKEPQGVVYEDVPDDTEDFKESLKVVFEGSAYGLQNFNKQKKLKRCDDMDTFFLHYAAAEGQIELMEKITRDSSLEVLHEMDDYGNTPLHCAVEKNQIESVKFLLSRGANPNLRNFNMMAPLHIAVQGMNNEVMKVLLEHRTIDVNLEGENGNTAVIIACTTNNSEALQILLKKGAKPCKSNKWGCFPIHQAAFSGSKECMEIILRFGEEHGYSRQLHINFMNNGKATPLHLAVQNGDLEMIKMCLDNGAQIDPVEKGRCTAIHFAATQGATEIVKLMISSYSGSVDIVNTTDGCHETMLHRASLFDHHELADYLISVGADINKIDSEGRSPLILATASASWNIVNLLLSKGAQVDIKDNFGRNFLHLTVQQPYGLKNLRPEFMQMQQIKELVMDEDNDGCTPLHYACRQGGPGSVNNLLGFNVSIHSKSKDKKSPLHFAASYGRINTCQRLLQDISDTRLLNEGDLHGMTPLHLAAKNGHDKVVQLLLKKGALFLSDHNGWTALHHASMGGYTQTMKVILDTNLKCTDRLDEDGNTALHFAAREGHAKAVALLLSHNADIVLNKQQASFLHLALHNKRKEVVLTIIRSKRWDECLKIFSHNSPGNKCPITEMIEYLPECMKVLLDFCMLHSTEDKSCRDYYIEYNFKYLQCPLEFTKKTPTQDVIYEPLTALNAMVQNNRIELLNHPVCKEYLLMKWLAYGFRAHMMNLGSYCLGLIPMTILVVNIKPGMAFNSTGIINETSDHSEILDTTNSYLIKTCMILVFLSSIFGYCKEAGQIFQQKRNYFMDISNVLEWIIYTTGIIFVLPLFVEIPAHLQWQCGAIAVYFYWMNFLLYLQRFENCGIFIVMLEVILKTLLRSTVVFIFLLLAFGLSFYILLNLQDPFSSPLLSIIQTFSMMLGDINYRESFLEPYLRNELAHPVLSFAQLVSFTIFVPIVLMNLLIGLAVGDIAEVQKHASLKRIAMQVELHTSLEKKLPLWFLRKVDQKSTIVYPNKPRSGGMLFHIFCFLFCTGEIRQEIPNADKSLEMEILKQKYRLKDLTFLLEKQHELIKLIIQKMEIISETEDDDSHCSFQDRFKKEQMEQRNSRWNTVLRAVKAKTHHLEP
# OVCAR-8 ovarian tumor = assay: OVCAR-8 intraperitoneal xenograft in athymic nude mice; type: in vivo
# Protocol: OVCAR-8 cells expressing red fluorescent protein were xenografted intraperitoneally in athymic nude mice to form tumors (Mol Cancer Ther 2020, 19, 89). After 4 weeks, mice were dosed with YB-1 or vehicle control (10% N-Methylpyrrolidone-72% PEG400—18% water) for 2 weeks (dosage: 5 mg/kg; ip treatment twice per week). As shown in FIGS. 16A-B, compared to vehicle group, animals treated with YB-1 for 2 weeks had 40% less tumor burden based on average radiant efficiency measured with IVIS and reduced approximately half of the body weight loss (7% average body weight loss for YB-1 treatment group vs. 13% average body weight loss for vehicle group).
# MDA-MB-231 = assay: Human cancer cell growth inhibition assay (ATP assay), MDA-MB-231; type: cell-based; details: for IC50: Homo sapiens, MDA-MB-231, 96 h, 4 days, Means±SEM from three independent experiments, read-out: MDA-MB-231, IC50
# [3] = system: Src protein activation in MDA-MB-231 cells; assay: Cancer cell immunocytochemistry assay, Phospho-Src (Y416), MDA-MB-231; type: cell-based, human
# Protocol: as §1
# TRPV1 [4] = biological target: TRPV1 (Rattus norvegicus, UniProt O35433); details: read-out: EC50 in Ca2+ influx assay, cited from earlier work
# TRPV1 (Rattus norvegicus, UniProt O35433), sequence (O35433 whole entry): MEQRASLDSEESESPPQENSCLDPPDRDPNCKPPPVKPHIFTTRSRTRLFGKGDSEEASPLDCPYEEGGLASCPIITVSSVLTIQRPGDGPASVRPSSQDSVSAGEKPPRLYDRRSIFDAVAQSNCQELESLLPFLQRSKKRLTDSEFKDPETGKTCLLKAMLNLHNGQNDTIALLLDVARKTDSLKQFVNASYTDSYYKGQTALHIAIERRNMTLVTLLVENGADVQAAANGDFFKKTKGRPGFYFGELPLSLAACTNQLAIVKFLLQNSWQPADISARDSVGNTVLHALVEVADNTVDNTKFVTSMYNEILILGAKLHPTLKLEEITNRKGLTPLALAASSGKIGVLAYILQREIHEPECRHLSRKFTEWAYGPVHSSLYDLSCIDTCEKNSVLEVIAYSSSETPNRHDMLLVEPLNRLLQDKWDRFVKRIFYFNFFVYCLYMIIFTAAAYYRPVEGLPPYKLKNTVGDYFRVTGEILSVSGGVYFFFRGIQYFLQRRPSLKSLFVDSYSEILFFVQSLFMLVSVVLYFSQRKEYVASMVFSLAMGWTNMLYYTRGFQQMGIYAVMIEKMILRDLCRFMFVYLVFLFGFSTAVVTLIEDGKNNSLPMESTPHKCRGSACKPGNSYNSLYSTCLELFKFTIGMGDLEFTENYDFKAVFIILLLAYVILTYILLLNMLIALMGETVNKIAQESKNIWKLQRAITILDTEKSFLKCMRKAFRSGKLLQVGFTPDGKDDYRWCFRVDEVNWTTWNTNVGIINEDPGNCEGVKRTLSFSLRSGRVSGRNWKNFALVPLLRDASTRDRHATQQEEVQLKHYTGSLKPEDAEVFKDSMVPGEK
# [5] = literature; cited from earlier work
# Mouse plasma stability = details: C57BL6 mouse plasma; 2 μM (YB-2), 5 μM (controls)
# TRPV1 [6] = biological target: T3, TRPV1 (Mus musculus, UniProt Q704Y3); assay: Ca2+ imaging of primary mouse dorsal root ganglion (DRG) neurons, TRPV1 desensitization; type: cell-based; details: then capsaicin 0.5 μM
# T3 construct: DRG was isolated from male and female mice expressing GCaMP6f in neurons; endogenous in cells; host or cells: dissociated primary DRG neurons from GCaMP6f-expressing mice
# T3 sequence (Q704Y3 whole entry): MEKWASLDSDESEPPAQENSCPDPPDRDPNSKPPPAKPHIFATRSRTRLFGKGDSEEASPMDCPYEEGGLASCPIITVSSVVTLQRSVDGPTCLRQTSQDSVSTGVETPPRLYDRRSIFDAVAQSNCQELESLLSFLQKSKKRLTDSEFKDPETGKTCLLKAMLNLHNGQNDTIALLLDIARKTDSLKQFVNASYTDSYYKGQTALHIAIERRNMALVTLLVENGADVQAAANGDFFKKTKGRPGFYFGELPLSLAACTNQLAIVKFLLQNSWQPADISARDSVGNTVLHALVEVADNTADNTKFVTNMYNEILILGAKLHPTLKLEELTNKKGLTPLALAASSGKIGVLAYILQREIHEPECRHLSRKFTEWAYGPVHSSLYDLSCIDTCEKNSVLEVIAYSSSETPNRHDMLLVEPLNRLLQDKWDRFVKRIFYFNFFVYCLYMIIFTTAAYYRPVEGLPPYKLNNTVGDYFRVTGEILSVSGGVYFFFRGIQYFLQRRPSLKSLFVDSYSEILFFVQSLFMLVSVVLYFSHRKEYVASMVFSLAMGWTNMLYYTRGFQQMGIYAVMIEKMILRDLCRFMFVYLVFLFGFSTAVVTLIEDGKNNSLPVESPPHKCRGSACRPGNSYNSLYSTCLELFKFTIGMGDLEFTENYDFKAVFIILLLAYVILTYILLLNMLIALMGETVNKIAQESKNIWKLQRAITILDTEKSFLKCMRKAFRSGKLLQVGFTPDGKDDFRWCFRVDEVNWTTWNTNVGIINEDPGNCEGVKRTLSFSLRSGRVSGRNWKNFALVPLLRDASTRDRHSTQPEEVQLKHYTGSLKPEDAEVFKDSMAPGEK
# [7] = both, mouse, in vivo, 1 min
# [8] = intraplantar
# human TRPV1 = biological target: T4, human TRPV1 (Homo sapiens, UniProt Q8NER1); assay: In vitro Ca2+ flux assay in human TRPV1 transfected HEK 293 cells; type: cell-based; details: Means±SEM from three independent experiments; read-out: TRPV1 EC50
# T4 construct: DYK (FLAG) tag from vector pcDNA3.1+/C-(K)DYK (C); host or cells: FreeStyle 293-F cells (HEK 293), transient transfection
# T4 sequence (Q8NER1 whole entry): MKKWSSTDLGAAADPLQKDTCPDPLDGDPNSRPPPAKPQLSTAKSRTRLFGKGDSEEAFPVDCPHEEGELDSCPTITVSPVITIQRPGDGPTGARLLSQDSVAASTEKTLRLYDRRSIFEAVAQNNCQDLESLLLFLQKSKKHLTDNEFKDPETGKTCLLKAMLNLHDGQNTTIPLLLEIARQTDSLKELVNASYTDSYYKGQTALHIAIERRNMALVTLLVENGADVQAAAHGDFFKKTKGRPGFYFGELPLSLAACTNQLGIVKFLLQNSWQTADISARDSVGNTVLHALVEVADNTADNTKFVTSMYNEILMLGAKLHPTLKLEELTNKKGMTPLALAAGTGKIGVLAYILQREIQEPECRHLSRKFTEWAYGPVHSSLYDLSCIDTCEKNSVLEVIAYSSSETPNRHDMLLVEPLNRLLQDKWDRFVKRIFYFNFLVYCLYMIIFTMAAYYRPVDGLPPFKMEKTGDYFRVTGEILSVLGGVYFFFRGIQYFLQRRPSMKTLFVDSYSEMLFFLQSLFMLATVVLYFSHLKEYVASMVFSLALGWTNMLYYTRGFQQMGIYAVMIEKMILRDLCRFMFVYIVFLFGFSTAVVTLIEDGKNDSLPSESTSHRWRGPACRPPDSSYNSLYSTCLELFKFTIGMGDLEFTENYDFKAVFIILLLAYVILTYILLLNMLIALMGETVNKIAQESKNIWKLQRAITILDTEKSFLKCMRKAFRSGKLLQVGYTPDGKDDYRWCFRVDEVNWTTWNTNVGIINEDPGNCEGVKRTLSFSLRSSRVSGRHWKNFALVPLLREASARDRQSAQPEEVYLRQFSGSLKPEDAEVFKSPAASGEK
# [9] = YB-1 15 μM, capsaicin 50 μM, 1-6 h
# [10] = 5 mg/kg ip twice per week for 2 weeks
# [11] = first treatment capsaicin 0.5 μM, YB-11 0.5 μM or YB-16 1.0 μM, paired t-test
smiles,measurement,setting,value
COc1cc(CNC(=O)CCCC/C=C/C(C)C)ccc1NC(=O)CCCC/C=C/C(C)C [YB-1],potency in inhibiting Src protein activation compared to capsaicin,[1],at least 3 fold
same,cellular Src kinase phosphorylation levels,[1]; [9],time-dependently reduced the cellular Src kinase phosphorylation levels
same,potency in inhibiting Src protein activation compared to capsaicin,[2],at least 3 fold
same,cellular Src kinase phosphorylation levels,[2]; [9],time-dependently reduced the cellular Src kinase phosphorylation levels
same,inhibition of MDA-MB-231 cell invasion,MDA-MB-231 cell invasion,dose-dependently inhibited
same,potency in inhibiting cell invasion compared to capsaicin,MDA-MB-231 cell invasion; MDA-MB-231,about 4 fold
same,inhibition of OVCAR-8 cell invasion,OVCAR-8 cell invasion; 24 h,dose-dependently inhibited
same,potency in inhibiting cell invasion compared to capsaicin,OVCAR-8 cell invasion; OVCAR-8,~3 fold
same,inhibition of NCI-H460 cell invasion,NCI-H460 cell invasion,dose-dependently inhibited
same,potency in inhibiting cell invasion compared to capsaicin,NCI-H460 cell invasion; NCI-H460,~10 fold
same,IC50,NCI-H460,11 µM
same,potency in growth inhibition compared to capsaicin,NCI-H460; NCI-H460 cell line,18 fold
same,IC50,OVCAR-8,38 µM
same,potency in growth inhibition compared to capsaicin,OVCAR-8; OVACR-8 cell line,6 fold
same,EC50,human TRPV3,> 10 µM
same,EC50,human TRPA1,> 10 µM
same,average body weight loss,OVCAR-8 ovarian tumor; [10],7%
same,"less tumor burden compared to vehicle group (average radiant efficiency, IVIS)",OVCAR-8 ovarian tumor; [10],40%
same,tumor burden in vivo,OVCAR-8 ovarian tumor; FIG. 16,reduces tumor burden in vivo
same,IC50,MDA-MB-231,38 µM
same,potency in growth inhibition compared to capsaicin,MDA-MB-231; MDA-MB-231 cell line,10 fold
same,potency in inhibiting Src protein activation compared to capsaicin,[3],at least 3 fold
same,cellular Src kinase phosphorylation levels,[3]; [9],time-dependently reduced the cellular Src kinase phosphorylation levels
COc1cc(CNC(=O)CCCC/C=C/C(C)C)ccc1NC(C)=O [YB-9],inhibition of MDA-MB-231 cell invasion,MDA-MB-231 cell invasion,dose-dependently inhibited
same,inhibition of NCI-H460 cell invasion,NCI-H460 cell invasion,dose-dependently inhibited the NCI-H460 cell invasion from 15 μM to 60 μM
same,IC50,NCI-H460,65 ± 15 µM
same,IC50,OVCAR-8,34 ± 12 µM
same,EC50,human TRPV3,> 10 µM
same,EC50,human TRPA1,> 10 µM
same,IC50,MDA-MB-231,75 ± 20 µM
same,cellular Src kinase phosphorylation levels,"[3]; at about 40% of IC50 concentration from cell growth inhibition assay, 4 h",significantly reduced the cellular Src kinase phosphorylation levels
COc1cc(CN(C)C(=O)CCCCC=CC(C)C)ccc1O [capsaicin analog 3d],EC50,TRPV1 [4],> 100 µM
"C=C(C)[C@]12C[C@@H](C)[C@@]34O[C@](Cc5ccccc5)(O[C@@H]1[C@@H]3C=C(COC(=O)Cc1ccc(O)c(OC)c1)C[C@]1(O)C(=O)C(C)=C[C@@H]41)O2 [Resiniferatoxin (RTX), Resiniferatoxin]",solubility in water,[5],insoluble in water
CCCCCCCCC(=O)NCc1ccc(N)c(OC)c1 [N-[(4-amino-3-methoxyphenyl)methyl]-Nonanamide],EC50,TRPV1 [4]; as reported in literature,> 10 µM
CC(C)[N+](C)(CCOC(=O)C1c2ccccc2Oc2ccccc21)C(C)C [Propantheline],% Remaining at T120,Mouse plasma stability,20%
same,T1/2,Mouse plasma stability,55 min
CC[C@H](C)C(=O)O[C@H]1C[C@@H](C)C=C2C=C[C@H](C)[C@H](CC[C@@H]3C[C@@H](O)CC(=O)O3)[C@H]21 [Lovastatin],% Remaining at T120,Mouse plasma stability,0.2%
same,T1/2,Mouse plasma stability,12 min
COc1cc(CC(=O)N/C=C/c2ccc(C(F)(F)F)cc2)ccc1O [YB-11],TRPV1-sensitive neurons showing desensitization,TRPV1 [6]; first treatment 0.5 μM,67%
same,area under the curve of the Ca2+ signal of the second (capsaicin) application,TRPV1 [6]; [11],statistically significant reduction; also recorded: significantly reduced
same,max Ca2+ signal of the second (capsaicin) application,TRPV1 [6]; [11],statistically significant reduction; also recorded: significantly reduced
same,MPP,[7],0.101 mg/mL
same,animal death and sedation in formalin test,[8],"No mice treated with YB-16, YB-11 or YB-2 died or experienced sedative reaction"
same,reduction of formalin first phase behavior,"[8]; 10 g, 2 hr prior to formalin",36%
same,inhibition of MDA-MB-231 cell invasion,MDA-MB-231 cell invasion,dose-dependently inhibited
same,IC50,NCI-H460,87 ± 10 µM
same,IC50,OVCAR-8,65 µM
same,EC50,human TRPV1,< 0.1 µM and 0.012 to 0.048 µM and 0.012 µM
same,EC50,human TRPV3,> 10 µM
same,EC50,human TRPA1,> 10 µM
same,IC50,MDA-MB-231,129 ± 21 µM
